Legend:
[1] = test system: B. subtilis; test: Antimicrobial activity (zone of inhibition) of treated cotton fabric; format: cell-based; details: aqueous solution applied to cotton fabric; observation over all plates
Excerpt: (§1) Each aqueous solution prepared and applied to cotton fabric and tested for antimicrobial activity.
(§2) In Table 2, below, “5+” represents a zone of inhibition ranging 41 mm to 50 mm; “4+” represents a zone of 31 mm to 40 mm; “3+” represents a zone of 21 mm to 30 mm; “2+” represents a zone of 11 mm to 20 mm; “1+” represents a zone of 1 mm to 10 mm; and “−” represents no antimicrobial activity noted.
(§3) The American Association of Textile Chemists and Colorists (AATCC) test method 147, Antibacterial Assessment of Textile Materials was used to qualitatively test the biocidal efficacy of pretreatment solutions according to an embodiment of the present invention. Test material was aseptically transferred directly onto the surface of an inoculated nutrient agar slurry. After a specified incubation contact time, the test material was removed and any growth, or lack thereof, beneath the test material surface is recorded.

[2] = test system: S. aureus; test: as above; format: cell-based; details: aqueous solution applied to cotton fabric; observation over all plates
Excerpt: as §1, §2, §3

| SMILES | clearing of plates in words, B. subtilis [1] | clearing of plates in words, S. aureus [2] |
| --- | --- | --- |
| Oc1cccc2cccnc12 [8HQ, 8-hydroxyquinoline] | cleared plates 2 |  |
| O=S(=O)(O)O.Oc1cccc2cccnc12.Oc1cccc2cccnc12 [Quinolinol salt hemisulfate, 8-HQ hemisulfate] |  | Cleared all of |
